The nature of data set [1]: in vivo. Conditions: Sprague-Dawley, rat, iv, 1 mg/kg.
A short description of data set [2]: in vivo. The conditions noted are these: Sprague-Dawley, rat, po, 10 mg/kg.
Data set [3] can be described thus: in vivo. The conditions noted are these: Sprague-Dawley, rat, iv, 1 mg/kg. The source holds these as a separate data set.
Data set [4] in a line: in vivo. Conditions: Sprague-Dawley, rat, po, 10 mg/kg. The source holds these as a separate data set.

`COc1cc2c(Nc3ccc(Oc4ccccc4)cc3)ncnc2cc1OCC1CCN(C)CC1`: the half-life (in general, how long it takes for the measured level to halve) in “in vivo [1]” is 1.97 h. Also, the bioavailability – broadly, dose-corrected exposure relative to a reference, in per cent – in the data set “in vivo [2]” stood at 9.33%. The Cmax (usually the highest concentration seen after dosing) came to 69.6 ng/mL in “in vivo [3]” and 7.43 ng/mL in “in vivo [4]”.

These data come from ChEMBL document CHEMBL5247618, “Discovery and optimization of 4-anilinoquinazoline derivatives spanning ATP binding site and allosteric site as effective EGFR-C797S inhibitors” (Eur J Med Chem, 2022).
